How the values were obtained:
[1] = tested on: NCI-H1299; experiment: cells; format: functional, cell-based; settings: Homo sapiens, NCI-H1299, 24 h
Description: Antiproliferative activity against human NCI-H1299 cells assessed as inhibition of cell growth incubated for 24 hrs by CCK-8 assay

[2] = tested on: A549; experiment: cells; format: functional, cell-based; settings: Homo sapiens, A549, 24 h
Description: Antiproliferative activity against human A549 cells assessed as inhibition of cell growth incubated for 24 hrs by CCK-8 assay

[3] = in vitro; settings: human, HEK293T cells
Description: Cytotoxicity against HEK293T cells assessed as inhibition of cell growth incubated for 24 hrs by CCK-8 assay

[4] = tested on: NCI-H1975; experiment: cells; format: functional, cell-based; settings: Homo sapiens, NCI-H1975, 24 h
Description: Antiproliferative activity against human NCI-H1975 cells assessed as inhibition of cell growth incubated for 24 hrs by CCK-8 assay

[5] = tested on: HCC827; experiment: cells; format: functional, cell-based; settings: Homo sapiens, HCC827, 24 h
Description: Antiproliferative activity against human HCC827 cells assessed as inhibition of cell growth incubated for 24 hrs by CCK-8 assay

[6] = tested on: NCI-H1975; experiment: Induction of apoptosis in human NCI-H1975 cells assessed as live cells at 10 micromol/L incubated for 24 hrs by Annexin V-FITC/PI staining based analysis (reference value: 88.7%); format: functional; settings: dose 10 µmol/L, at 10 µM
[7] = tested on: NCI-H1975; experiment: Induction of apoptosis in human NCI-H1975 cells assessed as dead cells at 10 micromol/L incubated for 24 hrs by Annexin V-FITC/PI staining based analysis (reference value: 0.103%); format: functional; settings: dose 10 µmol/L, at 10 µM
[8] = tested on: NCI-H1975; experiment: Induction of apoptosis in human NCI-H1975 cells assessed as early apoptotic cells at 10 micromol/L incubated for 24 hrs by Annexin V-FITC/PI staining based analysis (reference value: 2.55%); format: functional; settings: dose 10 µmol/L, at 10 µM

| SMILES | IC50 [1] | IC50 [2] | IC50 at 24 h [3] | IC50 [4] | IC50 [5] | Activity [6] | Activity [7] | Activity [8] |
| --- | --- | --- | --- | --- | --- | --- | --- | --- |
| COC(=O)[C@H](CS[C@H](CC=C(C)C)C1=CC(=O)c2c(O)ccc(O)c2C1=O)NC(=O)CCCC[C@@H]1CCSC(c2ccc(C(C)C)cc2)S1 (stereo partly drawn) | 4.93 µM | 4.21 µM | 77.5 µM | 4.08 µM | 4.21 µM |  |  |  |
| COC(=O)[C@H](CS[C@H](CC=C(C)C)C1=CC(=O)c2c(O)ccc(O)c2C1=O)NC(=O)CCCC[C@@H]1CCSC(c2ccccc2Cl)S1 (stereo partly drawn) | 6.73 µM | 9.56 µM | 84.5 µM | 8.3 µM | 8.31 µM |  |  |  |
| COC(=O)[C@H](CS[C@H](CC=C(C)C)C1=CC(=O)c2c(O)ccc(O)c2C1=O)NC(=O)CCCC[C@@H]1CCSC(c2cccc(C(F)(F)F)c2)S1 (stereo partly drawn) | 3.53 µM | 4.59 µM | 83.8 µM | 3.66 µM | 4.34 µM |  |  |  |
| COC(=O)[C@H](CS[C@H](CC=C(C)C)C1=CC(=O)c2c(O)ccc(O)c2C1=O)NC(=O)CCCC[C@@H]1CCSC(c2cccc(Br)c2)S1 (stereo partly drawn) | 3.53 µM | 15.2 µM | 96.7 µM | 7.4 µM | 11.8 µM |  |  |  |
| COc1cc2ncnc(Nc3ccc(F)c(Cl)c3)c2cc1OCCCN1CCOCC1 [GEFITINIB] |  |  |  |  |  | 89% | 0% | 1.45% |
| COC(=O)[C@H](CS[C@H](CC=C(C)C)C1=CC(=O)c2c(O)ccc(O)c2C1=O)NC(=O)CCCC[C@@H]1CCSC(c2ccc(C(F)(F)F)cc2)S1 (stereo partly drawn) | 4.58 µM | 6.49 µM | 84.9 µM | 2.32 µM | 7.15 µM |  |  |  |
| COC(=O)[C@H](CS[C@H](CC=C(C)C)C1=CC(=O)c2c(O)ccc(O)c2C1=O)NC(=O)CCCC[C@@H]1CCSC(c2ccc([N+](=O)[O-])cc2)S1 (stereo partly drawn) | 5.34 µM | 21.8 µM | 94.2 µM | 17 µM | 25.9 µM |  |  |  |
| COC(=O)[C@H](CS[C@H](CC=C(C)C)C1=CC(=O)c2c(O)ccc(O)c2C1=O)NC(=O)CCCC[C@@H]1CCSC(c2cccc(Cl)c2Cl)S1 (stereo partly drawn) | 4.5 µM | 16.1 µM | 98.2 µM | 1.7 µM | 16.6 µM |  |  |  |
| COC(=O)[C@H](CS[C@H](CC=C(C)C)C1=CC(=O)c2c(O)ccc(O)c2C1=O)NC(=O)CCCC[C@@H]1CCSC(c2ccccc2)S1 (stereo partly drawn) | 6.33 µM | 8.6 µM | 95.5 µM | 11.5 µM | 6.09 µM |  |  |  |
